# Laboratory results reported in PubChem BioAssay AID256 (DTP/NCI, 2004).
# Inconclusive results and toxic doses are left out.
# Tested on: CD2F1 mice, L1210 leukemia ip, survival T/C
# Assay: NCI In Vivo Anticancer Drug Screen. Data for tumor model L1210 Leukemia (intraperitoneal) in CD2F1 (CDF1) mice
# Details: endpoint: mean survival time, higher = longer survival
# In short: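 Tumor-bearing mice (transplanted tumor) were split into treated and vehicle control groups, and the measured endpoint of each treated group was divided by that of its vehicle controls.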
compound,measurement,setting,value
CC[C@@]1(O)C(=O)OCc2c1cc1n(c2=O)Cc2cc3c(OC)cccc3nc2-1,T/C,"dose: 0.13 mg/kg/injection, schedule: Q01DX009 (ip), vehicle: saline with Tween-80",105 % of control
same,T/C,"dose: 0.25 mg/kg/injection, schedule: Q01DX009 (ip), vehicle: saline with Tween-80",111 % of control
same,T/C,"dose: 1.0 mg/kg/injection, schedule: Q01DX009 (ip), vehicle: saline with Tween-80",101 % of control
same,T/C,"dose: 1.0 mg/kg/injection, schedule: Q04DX003 (ip), vehicle: other",105 % of control
same,T/C,"dose: 1.56 mg/kg/injection, schedule: Q01DX009 (ip), vehicle: saline with Tween-80",157 % of control
same,T/C,"dose: 2.0 mg/kg/injection, schedule: Q04DX003 (ip), vehicle: other",155 % of control
same,T/C,"dose: 2.25 mg/kg/injection, schedule: Q01DX009 (ip), vehicle: saline",158 % of control
same,T/C,"dose: 3.13 mg/kg/injection, schedule: Q01DX009 (ip), vehicle: saline with Tween-80",86 % of control
same,T/C,"dose: 3.8 mg/kg/injection, schedule: Q04DX003 (ip), vehicle: water",154 % of control
same,T/C,"dose: 4.0 mg/kg/injection, schedule: Q04DX003 (ip), vehicle: other",153 % of control
same,T/C,"dose: 7.5 mg/kg/injection, schedule: Q04DX003 (ip), vehicle: water",90 % of control
same,T/C,"dose: 8.0 mg/kg/injection, schedule: Q04DX003 (ip), vehicle: other",164 % of control
O=c1[nH]c(C(Cl)(Cl)Cl)nc2ccc(Cl)cc12,T/C,"dose: 100.0 mg/kg/injection, schedule: Q04DX003 (ip), vehicle: saline with Tween-80",101 % of control
same,T/C,"dose: 200.0 mg/kg/injection, schedule: Q04DX003 (ip), vehicle: saline with Tween-80",96 % of control
same,T/C,"dose: 400.0 mg/kg/injection, schedule: Q04DX003 (ip), vehicle: saline with Tween-80",98 % of control
COc1cc2c(cc1C(C)C)CCC1C(C)(C(=O)O)CCCC21C (configuration not stated),T/C,"dose: 100.0 mg/kg/injection, schedule: Q01DX001 (ip), vehicle: saline with Tween-80",100 % of control
same,T/C,"dose: 100.0 mg/kg/injection, schedule: Q01DX009 (ip), vehicle: saline sonified",95 % of control
same,T/C,"dose: 200.0 mg/kg/injection, schedule: Q01DX001 (ip), vehicle: saline with Tween-80",97 % of control
same,T/C,"dose: 200.0 mg/kg/injection, schedule: Q01DX009 (ip), vehicle: saline sonified",97 % of control
same,T/C,"dose: 400.0 mg/kg/injection, schedule: Q01DX001 (ip), vehicle: saline with Tween-80",102 % of control
same,T/C,"dose: 400.0 mg/kg/injection, schedule: Q01DX009 (ip), vehicle: saline sonified",96 % of control
C[N+](C)(CC(=O)Nc1ccc(Cl)c(Cl)c1)Cc1ccc(Cl)c(Cl)c1,T/C,"dose: 6.25 mg/kg/injection, schedule: Q01DX001 (ip), vehicle: saline with Tween-80",101 % of control
same,T/C,"dose: 6.25 mg/kg/injection, schedule: Q01DX009 (ip), vehicle: saline sonified",94 % of control
same,T/C,"dose: 12.5 mg/kg/injection, schedule: Q01DX001 (ip), vehicle: saline with Tween-80",103 % of control
same,T/C,"dose: 12.5 mg/kg/injection, schedule: Q01DX009 (ip), vehicle: saline sonified",93 % of control
same,T/C,"dose: 25.0 mg/kg/injection, schedule: Q01DX001 (ip), vehicle: saline with Tween-80",105 % of control
same,T/C,"dose: 25.0 mg/kg/injection, schedule: Q01DX009 (ip), vehicle: saline sonified",86 % of control
